From patent US11204492B2, “Naphtyl based high index hydrophobic liquids and transmission recovery agents for liquid lens formulations” (CORNING INCORPORATED, priority 2018, dated 2021)
Converted amounts (≈) assume the structure as drawn.

What was measured:
Viscosity at 20° C. = assay type: physicochemical; details: neat compound
Method: (§1) The following examples represent a variety of liquid lenses prepared according to Varioptic A39N0 design. The Varioptic A39N0 lens design includes a mechanical aperture of about 3.9 mm, a non-conductive fluid layer thickness of about 0.6 mm, and a conductive fluid layer thickness of about 1.8 mm. The properties measured for these electrowetting optical devices were performed at 20° C.
(§2) Example of the naphthalene based compounds disclosed herein have a listing of some of their physical properties listed below.

[1] = Refractive index at 589.3 nm; assay type: physicochemical; details: neat compound
Method: as §1, §2

[2] = Density of naphthalene based compounds and liquid lens liquids; assay type: physicochemical; design: Density at 20° C.: unit not given here; details: for Density at 20° C.: neat compound
[3] = Solubility in ethylene glycol; details: organic solvent or mixture
Solubility in water = details: 20 °C

Row | SMILES | Viscosity at 20° C. (Viscosity at 20° C.) [cSt] | Index at 589.3 nm/20° C. [1] | Density at 20° C. [2] | Density ([2]; 25° C.) | solubility ([3]; 20 °C) [µg/mL] | solubility ([3]; 85 °C) [µg/mL] | solubility (Solubility in water) [µg/mL] | Density ([2]; comparative aliphatic oil, temperature not given) [g/mL]
1 | CCc1ccc2ccccc2c1 [XIII, 2-ethylnaphthalene] | 3.9 | 1.61 | 1.01 | about 1.01 g/cm^3 |  |  |  | 
2 | [CH3][Ge]([CH3])([CH3])[c]1ccc2ccccc2c1 [VI, 2-trimethylgermane naphthalene] | 6.1 | 1.59 | 1.19 |  | 3400 | 14800 | 6 | 
3 | CCCCCCCC[Si](C)(C)c1ccc2ccccc2c1 [XI, 2-dimethyloctylsilane naphthalene] | 25.9 | 1.54 | 0.95 |  | 440 (≈ 1.47 mM) | 680 (≈ 2.28 mM) |  | 
4 | C[CH2][Ge]([CH2]C)([CH2]C)[c]1ccc2ccccc2c1 [VII, 2-triethylgermane naphthalene] | 10.6 | 1.58 | 1.14 |  | 1900 | 4200 |  | 
5 | CCCc1ccc2ccccc2c1 [XIV, 2-propylnaphthalene] |  | 1.58 | 0.98 |  |  |  |  | 
6 | C[Si](C)(C)c1ccc2ccccc2c1 [VIII, 2-trimethylsilane naphthalene] | 8.1 | 1.58 | 1.01 |  |  |  |  | 
7 | c1ccc(Sc2ccc3ccccc3c2)cc1 [X, 2-phenylsulfur naphthalene] | 33.8 | 1.69 | 1.16 |  |  |  |  | 
8 | CCCC[Si](C)(C)c1ccc2ccccc2c1 [IX, 2-dimethylbutylsilane naphthalene] | 14.9 | 1.57 | 0.97 |  | 1100 (≈ 4.54 mM) | 2100 (≈ 8.66 mM) |  | 
9 | Fc1cccc2ccccc12 [XII, 1-fluoronapthalene] | 2.1 | 1.59 | 1.13 |  |  |  |  | 
10 | CCCCCCCCCCCC [dodecane, reference compound] |  |  |  |  |  |  |  | 0.75
